Data published in PubChem BioAssay (NCI).
Values joined by “and” are separate entries in the source; they are usually repeats but may differ in a detail not shown here. Equal values may be shown once.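 Each compound was tested at five concentrations against cells in 96-well plates for 48 hours. Abbreviation: GI50, concentration required for 50% inhibition of growth. The concentration for full growth arrest is given as TGI.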

Assays:
Assay in all cases: NCI tumour cell line growth inhibition, 48 h
[1] = tested on: A549 NSCLC
[2] = tested on: OVCAR-8 ovarian
[3] = tested on: COLO 205 colon
[4] = tested on: UACC-257 melanoma
[5] = tested on: SF-268 CNS
[6] = tested on: HOP-92 NSCLC
[7] = tested on: OVCAR-3 ovarian
[8] = tested on: UO-31 renal
[9] = tested on: UACC-62 melanoma
[10] = tested on: SW-620 colon

Compound	GI50 [1]	TGI [1]	GI50 [2]	TGI [2]	GI50 [3]	TGI [3]	GI50 [4]	TGI [4]	GI50 [5]	TGI [5]	GI50 [6]	TGI [6]	GI50 [7]	TGI [7]	GI50 [8]	TGI [8]	GI50 [9]	TGI [9]	GI50 [10]	TGI [10]
NC(=O)c1cccc2cn(-c3ccc([C@@H]4CCCNC4)cc3)nc12	13.1 µM	28 µM	12.4 µM	38.5 µM	13.5 µM	28.6 µM	15.8 µM	30.7 µM	9.13 µM	28.5 µM	21.5 µM	89.9 µM	14.8 µM	31.6 µM	11.3 µM	25.2 µM	13.6 µM	27 µM	10.4 µM	51.3 µM
O=C(/C=C/c1ccccc1)NC1C=Nc2ccc(Cl)cc2NC1=O (stereo not given)		> 100 µM		> 100 µM		33.9 µM		87 µM		> 100 µM		> 100 µM		56.4 µM		87.8 µM		> 100 µM		24.2 µM
O=C(N/C(=C\c1ccc(/C=C(\NC(=O)c2ccccc2)c2nc3cc([N+](=O)[O-])ccc3[nH]2)cc1)c1nc2cc([N+](=O)[O-])ccc2[nH]1)c1ccccc1		> 100 µM		> 100 µM		> 100 µM		> 100 µM		> 100 µM		> 100 µM		> 100 µM		> 100 µM		> 100 µM		> 100 µM
CN1C(=O)C(C)(C)C2(SC(C)(C)C2(C)C)N(C)C1=S (stereo not given)		> 100 µM		> 100 µM		> 100 µM		> 100 µM		> 100 µM		> 100 µM		> 100 µM		> 100 µM		> 100 µM		> 100 µM
COc1cc(/C=N/NC(=O)c2ccc(C(F)(F)F)nc2Nc2ccc(Cl)cc2C)ccc1O	3.54 µM	15.1 µM	1.6 µM	13.5 µM	3.25 µM	10.4 µM	3.97 µM	13.4 µM	1.78 µM	13.3 µM	1.59 µM	7.58 µM	1.74 µM	13 µM	1.39 µM	7.76 µM	1.88 µM	5.01 µM	2.77 µM	12.1 µM
CCCCCN(CCCCC)CC(O)c1cc(C)c2ccc3cc(C(C)C)ccc3c2c1 (stereo not given)	2.61 µM	5.58 µM	2.55 µM	6.46 µM	2.08 µM	4.22 µM	1.99 µM	3.97 µM	2.14 µM	4.26 µM	1.4 µM	2.85 µM	1.92 µM	3.41 µM	1.48 µM	2.99 µM	1.71 µM	3.47 µM	1.81 µM	3.61 µM
COC(CN1C(=O)c2cccc3cccc(c23)C1=O)OC		> 100 µM		> 100 µM		> 100 µM		> 100 µM		> 100 µM		> 100 µM		> 100 µM		> 100 µM		> 100 µM		> 100 µM
COc1ccc2c3c1C(=O)CCCC3CO2 (stereo not given)		> 100 µM		> 100 µM		> 100 µM		> 100 µM		> 100 µM		> 100 µM		> 100 µM		> 100 µM		> 100 µM		> 100 µM
CC12CCC(O)CC1CCC1C2CCC2(C)C(C3=CC(=O)OC3)CCC12O (stereo not given)		1.96 µM		10.1 µM		12.2 µM		> 43.4 µM		7.07 µM		> 41.9 µM		10.3 µM		8.23 µM		12.8 µM		> 36.8 µM
OCc1ccc(N2CCC2c2ccc(F)cc2)cc1Cl (stereo not given)	7.44 µM	64 µM	23.6 µM	> 100 µM	3.44 µM	15.3 µM	0.278 µM	1.98 µM	35 µM	> 100 µM	3.14 µM	25.1 µM	2.34 µM	13.8 µM	20.8 µM	76.3 µM	0.397 µM	6.95 µM	4.93 µM	> 100 µM
C=C1C(=O)C23CC1CCC2C12CO[C@@H]4OCC(C)(CC[C@@H]1OC3=O)C42 (stereo not given in full)		25.1 µM		9.78 µM		4.34 µM		10.2 µM		12.7 µM		5.78 µM		16.6 µM		23.6 µM		17.3 µM		7.04 µM
CC1(c2ccc(F)cc2)C(C#N)C(=O)NC(=O)C1C#N (stereo not given)		> 100 µM		> 100 µM		> 100 µM		> 100 µM		> 100 µM		> 100 µM		> 100 µM		> 100 µM		> 100 µM		> 100 µM
COC1CCC(N2C(=O)CNc3ncc(-c4ccc(C(C)(C)O)nc4)nc32)CC1 (stereo not given)	1.48 µM and 0.337 µM	> 34.5 µM	1.27 µM and 0.436 µM	> 35.2 µM	1.03 µM and 0.176 µM	> 8.63 µM and 9.06 µM	0.649 µM and 0.195 µM	5.23 µM and 3.83 µM	1.97 µM and 0.356 µM	> 41.5 µM	0.129 µM and 0.0247 µM	0.934 µM and 0.389 µM	0.904 µM and 0.248 µM	> 33 µM	0.199 µM and 0.0768 µM	3.08 µM and 10.5 µM	0.237 µM and 0.111 µM	2.08 µM and 1.26 µM	1.78 µM and 0.935 µM	> 37.5 µM
O=C1C=C(Cl)C(=O)C(c2ccc(Cl)cc2)=C1		> 100 µM		40.7 µM		31 µM		40.7 µM		42.3 µM		35.7 µM		34.3 µM		28.5 µM		42.4 µM		89.5 µM
CN/N=C(/Cc1occc(=O)c1O)C(=O)Nc1ccccc1C		> 100 µM		> 100 µM		> 100 µM		> 100 µM		> 100 µM		> 100 µM		> 100 µM		> 100 µM		> 100 µM		> 100 µM
COc1ccc(C(=O)Cn2c(C(=O)c3ccccc3)nc(-c3ccc(OC)cc3)c2-c2ccc(OC)cc2)cc1	> 100 µM	> 100 µM	> 100 µM	> 100 µM	> 100 µM	> 100 µM	> 100 µM	> 100 µM	86.4 µM	> 100 µM	24.5 µM	60.4 µM	> 100 µM	> 100 µM	> 100 µM	> 100 µM	98.3 µM	> 100 µM	> 100 µM	> 100 µM
